Molecular target: T1, MCR-1 (Homo sapiens, UniProt Q01726)
T1 construct: expressed in transfected cells; host or cells: HEK 293
Assay: Melanocortin receptor binding assay, competition with 125I-HP 467, HEK 293 cells expressing hMCR-1
Settings: for % Disp. of 125I-HP 467 (first of duplicate) / % Disp. of 125I-HP 467 (second of duplicate): 10 μM isoquinoline compound; for % Disp. of 125I-HP 467 (first of duplicate): HEK 293 cells expressing MCR-1, duplicate 1; for % Disp. of 125I-HP 467 (second of duplicate): HEK 293 cells expressing MCR-1, duplicate 2; for IC50: competition with 125I-HP 467, HEK 293 cells expressing MCR-1, read-out: MC-1 IC50; for effectiveness as MC receptor ligand: binding to MC receptors, Table 1
How it was run: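 Test compounds compete on intact HEK 293 cells carrying hMCR-1 (2×10^4 per tube) or hMCR-4 (4×10^3 per tube), suspended in PBS, 10% calf serum, 1 mM CaCl2.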

T1 sequence (Q01726 whole entry): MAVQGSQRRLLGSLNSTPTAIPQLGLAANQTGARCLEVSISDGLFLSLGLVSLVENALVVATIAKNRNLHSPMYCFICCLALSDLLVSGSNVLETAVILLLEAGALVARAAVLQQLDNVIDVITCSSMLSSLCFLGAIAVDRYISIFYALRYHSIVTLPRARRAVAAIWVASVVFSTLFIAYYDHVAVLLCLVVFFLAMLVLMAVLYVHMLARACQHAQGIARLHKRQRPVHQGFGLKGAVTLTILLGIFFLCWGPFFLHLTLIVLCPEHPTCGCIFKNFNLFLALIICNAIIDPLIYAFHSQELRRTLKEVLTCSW

Compound	IC50 [nM]	also measured
CNC(CN)CCCCN1Cc2ccccc2C(CNC2CCCCC2)C1c1ccnc2ccccc12 (stereo not drawn) [TRG 2405-255]		% Disp. of 125I-HP 467 (first of duplicate): 29.2%; % Disp. of 125I-HP 467 (second of duplicate): 25.3%
CNC(CN)CCCCN1Cc2ccccc2C(CNC2CCCCC2)C1c1ccc(C)s1 (stereo not drawn) [TRG 2405-258]		% Disp. of 125I-HP 467 (first of duplicate): 80.7%; % Disp. of 125I-HP 467 (second of duplicate): 81.9%
CNC(CN)CCCCN1Cc2ccccc2C(CNC2CCCCC2)C1c1ccc(C)o1 (stereo not drawn) [TRG 2405-259]		% Disp. of 125I-HP 467 (first of duplicate): 42.5%; % Disp. of 125I-HP 467 (second of duplicate): 46.1%
CNC(CN)CCCCN1Cc2ccccc2C(CNC2CCCCC2)C1c1cccc(C)n1 (stereo not drawn) [TRG 2405-261]		% Disp. of 125I-HP 467 (first of duplicate): 45.9%; % Disp. of 125I-HP 467 (second of duplicate): 47.8%
CCn1c2ccccc2c2cc(C3C(CNC4CCCCC4)c4ccccc4CN3CCCCC(CN)NC)ccc21 (stereo not drawn) [TRG 2405-263]		% Disp. of 125I-HP 467 (first of duplicate): 61.6%; % Disp. of 125I-HP 467 (second of duplicate): 65.3%
CNC(CN)CCCCN1Cc2ccccc2C(CNC2CCCCC2)C1c1cc2c3c(c1O)CCCN3CCC2 (stereo not drawn) [TRG 2405-264]		% Disp. of 125I-HP 467 (first of duplicate): 35%; % Disp. of 125I-HP 467 (second of duplicate): 39.4%
CNC(CN)CCCCN1Cc2ccccc2C(CNC2CCCCC2)C1c1ccc(Br)o1 (stereo not drawn) [TRG 2405-269]		% Disp. of 125I-HP 467 (first of duplicate): 55.9%; % Disp. of 125I-HP 467 (second of duplicate): 57.7%
CNC(CN)CCCCN1Cc2ccccc2C(CNC2CCCCC2)C1c1nccs1 (stereo not drawn) [TRG 2405-270]		% Disp. of 125I-HP 467 (first of duplicate): 41.1%; % Disp. of 125I-HP 467 (second of duplicate): 33.7%
CCCCNc1ccc(C2C(CN)c3ccccc3CN2CCCC(CN)NCCc2ccc(Br)cc2)cc1 (stereo not drawn) [TRG 2409-222]	120	
CCCCNc1ccc(C2C(CN)c3ccccc3CN2CCCC(CN)NCc2ccc(OC)cc2)cc1 (stereo not drawn) [TRG 2409-226]	100	
CCCCNc1ccc(C2C(CN)c3ccccc3CN2CCCC(CN)NCCc2ccc3ccccc3c2)cc1 (stereo not drawn) [TRG 2409-227]	170	
CCCCNc1ccc(C2C(CN)c3ccccc3CN2CCCC(CN)NCCN)cc1 (stereo not drawn) [TRG 2409-229]	230	
CCNC(CN)CCCCN1Cc2ccccc2C(CNCCc2ccccc2)C1c1ccc(-c2ccccc2)cc1 (stereo not drawn) [TRG 2411-2]	550	
NC[C@H](CCCCN1Cc2ccccc2C(CNCCc2ccccc2)C1c1ccc(-c2ccccc2)cc1)NCCc1ccccc1 (stereo partly drawn) [TRG 2411-3]	880	
CNCCNC(CN)CCCCN1Cc2ccccc2C(CNCCc2ccccc2)C1c1ccc(-c2ccccc2)cc1 (stereo not drawn) [TRG 2411-4]	700	
NCCN[C@H](CN)CCCCN1Cc2ccccc2C(CNCCc2ccccc2)C1c1ccc(-c2ccccc2)cc1 (stereo partly drawn) [TRG 2411-5]	790	
CNC(C)CNC(CN)CCCCN1Cc2ccccc2C(CNCCc2ccccc2)C1c1ccc(-c2ccccc2)cc1 (stereo not drawn) [TRG 2411-6]	470	
NCC(CCCCN1Cc2ccccc2C(CNCCc2ccccc2)C1c1ccc(-c2ccccc2)cc1)NCCO (stereo not drawn) [TRG 2411-7]	630	
CNC(CNC(CN)CCCCN1Cc2ccccc2C(CNCCc2ccccc2)C1c1ccc(-c2ccccc2)cc1)Cc1ccccc1 (stereo not drawn) [TRG 2411-8]	760	
COCCNC(CN)CCCCN1Cc2ccccc2C(CNCCc2ccccc2)C1c1ccc(-c2ccccc2)cc1 (stereo not drawn) [TRG 2411-10]	1100	
NCC(CCCCN1Cc2ccccc2C(CNCCc2ccccc2)C1c1ccc(-c2ccccc2)cc1)NCC1CCCCC1 (stereo not drawn) [TRG 2411-12]	730	
NCC(CCCCN1Cc2ccccc2C(CNCCc2ccccc2)C1c1ccc(-c2ccccc2)cc1)NCc1ccccc1 (stereo not drawn) [TRG 2411-13]	1360	
CCNC(CN)CCCCN1Cc2ccccc2C(CNC2CCCCC2)C1c1ccc(-c2ccccc2)cc1 (stereo not drawn) [TRG 2411-14]	460	
NCC(CCCCN1Cc2ccccc2C(CNC2CCCCC2)C1c1ccc(-c2ccccc2)cc1)NCCO (stereo not drawn) [TRG 2411-16]	900	

Compound	IC50 [nM]	also measured
CNC(CNC(CN)CCCCN1Cc2ccccc2C(CNC2CCCCC2)C1c1ccc(-c2ccccc2)cc1)Cc1ccccc1 (stereo not drawn) [TRG 2411-17]	390	
COCCNC(CN)CCCCN1Cc2ccccc2C(CNC2CCCCC2)C1c1ccc(-c2ccccc2)cc1 (stereo not drawn) [TRG 2411-19]	490	
NCC(N)CCCCN1Cc2ccccc2C(CN)C1c1ccc(-c2ccccc2)cc1 (stereo not drawn) [TRG 2411-23]	590	
CCNC(CN)CCCCN1Cc2ccccc2C(CN)C1c1ccc(-c2ccccc2)cc1 (stereo not drawn) [TRG 2411-24]	530	
NCC(CCCCN1Cc2ccccc2C(CN)C1c1ccc(-c2ccccc2)cc1)NCCc1ccccc1 (stereo not drawn) [TRG 2411-25]	350	
NCCNC(CN)CCCCN1Cc2ccccc2C(CN)C1c1ccc(-c2ccccc2)cc1 (stereo not drawn) [TRG 2411-27]	660	
NCC1c2ccccc2CN(CCCCC(CN)N2CCCC2)C1c1ccc(-c2ccccc2)cc1 (stereo not drawn) [TRG 2411-31]	970	
COCCNC(CN)CCCCN1Cc2ccccc2C(CN)C1c1ccc(-c2ccccc2)cc1 (stereo not drawn) [TRG 2411-32]	550	
NCC(CCCCN1Cc2ccccc2C(CN)C1c1ccc(-c2ccccc2)cc1)NCC1CCCCC1 (stereo not drawn) [TRG 2411-34]	350	
CCNc1ccc(C2C(CNCCc3ccccc3)c3ccccc3CN2CCCCC(N)CN)cc1 (stereo not drawn) [TRG 2411-36]	130	
CCNc1ccc(C2C(CNCCc3ccccc3)c3ccccc3CN2CCCCC(CN)NCC)cc1 (stereo not drawn) [TRG 2411-37]	130	
CCNc1ccc(C2C(CNCCc3ccccc3)c3ccccc3CN2CCCCC(CN)NCCC2CCCCC2)cc1 (stereo not drawn) [TRG 2411-47]	220	
CCNc1ccc(C2C(CNCCc3ccccc3)c3ccccc3CN2CCCCC(CN)NCCN)cc1 (stereo not drawn) [TRG 2411-48]	300	
CCNc1ccc(C2C(CNC3CCCCC3)c3ccccc3CN2CCCCC(CN)NCC)cc1 (stereo not drawn) [TRG 2411-49]	220	
CCCCNC(CN)CCCCN1Cc2ccccc2C(CNC2CCCCC2)C1c1ccc(NCC)cc1 (stereo not drawn) [TRG 2411-50]	80	effectiveness as MC receptor ligand: particularly effective MC receptor ligands
CCNc1ccc(C2C(CNC3CCCCC3)c3ccccc3CN2CCCCC(CN)NCc2ccc(OC)cc2)cc1 (stereo not drawn) [TRG 2411-56]	130	
CCNc1ccc(C2C(CN)c3ccccc3CN2CCCCC(N)CN)cc1 (stereo not drawn) [TRG 2411-59]	370	
CCNc1ccc(C2C(CN)c3ccccc3CN2CCCCC(CN)NCC)cc1 (stereo not drawn) [TRG 2411-60]	50	effectiveness as MC receptor ligand: particularly effective MC receptor ligands
CCCCNC(CN)CCCCN1Cc2ccccc2C(CN)C1c1ccc(NCC)cc1 (stereo not drawn) [TRG 2411-61]	110	
CCNc1ccc(C2C(CN)c3ccccc3CN2CCCC[C@@H](CN)NCCc2ccc(Br)cc2)cc1 (stereo partly drawn) [TRG 2411-64]	480	
CCNc1ccc(C2C(CN)c3ccccc3CN2CCCCC(CN)NCCc2ccc(OC)cc2)cc1 (stereo not drawn) [TRG 2411-65]	390	
CCNc1ccc(C2C(CN)c3ccccc3CN2CCCCC(CN)NCc2ccccc2)cc1 (stereo not drawn) [TRG 2411-66]	110	
CCNc1ccc(C2C(CN)c3ccccc3CN2CCCCC(CN)NCc2ccc(Cl)cc2)cc1 (stereo not drawn) [TRG 2411-67]	210	
CCNc1ccc(C2C(CN)c3ccccc3CN2CCCCC(CN)NCc2ccc(OC)cc2)cc1 (stereo not drawn) [TRG 2411-68]	120	

Compound	IC50 [nM]	also measured
CCNc1ccc(C2C(CN)c3ccccc3CN2CCCCC(CN)NCCc2ccc3ccccc3c2)cc1 (stereo not drawn) [TRG 2411-69]	370	
CCNc1ccc(C2C(CN)c3ccccc3CN2CCCCC(CN)NCCC2CCCCC2)cc1 (stereo not drawn) [TRG 2411-70]	160	
CCNc1ccc(C2C(CN)c3ccccc3CN2CCCCC(CN)NCCN)cc1 (stereo not drawn) [TRG 2411-71]	390	
CCCCNc1ccc(C2C(CNCCc3ccccc3)c3ccccc3CN2CCCCC(N)CN)cc1 (stereo not drawn) [TRG 2411-72]	250	
CCCCNc1ccc(C2C(CNCCc3ccccc3)c3ccccc3CN2CCCCC(CN)NC)cc1 (stereo not drawn) [TRG 2411-73]	190	
CCCCNc1ccc(C2C(CNCCc3ccccc3)c3ccccc3CN2CCCCC(CN)NCCN)cc1 (stereo not drawn) [TRG 2411-85]	310	
CCCCNc1ccc(C2C(CNC3CCCCC3)c3ccccc3CN2CCCCC(CN)N2CCCC2)cc1 (stereo not drawn) [TRG 2411-89]	60	
CCCCNc1ccc(C2C(CNC3CCCCC3)c3ccccc3CN2CCCCC(CN)NCCc2ccc(Br)cc2)cc1 (stereo not drawn) [TRG 2411-91]	640	
CCCCNc1ccc(C2C(CNC3CCCCC3)c3ccccc3CN2CCCCC(CN)NCCc2ccc(OC)cc2)cc1 (stereo not drawn) [TRG 2411-92]	300	
CCCCNc1ccc(C2C(CNC3CCCCC3)c3ccccc3CN2CCCCC(CN)NCc2ccccc2)cc1 (stereo not drawn) [TRG 2411-93]	130	
CCCCNc1ccc(C2C(CN)c3ccccc3CN2CCCCC(CN)NC)cc1 (stereo not drawn) [TRG 2411-100]	130	
CCCCNc1ccc(C2C(CN)c3ccccc3CN2CCCCC(CN)NCC)cc1 (stereo not drawn) [TRG 2411-101]	100	
CCCCNc1ccc(C2C(CN)c3ccccc3CN2CCCCC(CN)N2CCCC2)cc1 (stereo not drawn) [TRG 2411-103]	20	
CCCCNc1ccc(C2C(CN)c3ccccc3CN2CCCCC(CN)NCCc2ccc(OC)cc2)cc1 (stereo not drawn) [TRG 2411-106]	370	
CCCCNc1ccc(C2C(CN)c3ccccc3CN2CCCCC(CN)NCc2ccccc2)cc1 (stereo not drawn) [TRG 2411-107]	340	
NC[C@@H](N)CCCN1Cc2ccccc2C(CNCCc2ccccc2)C1c1ccc(-c2ccccc2)cc1 (stereo partly drawn) [TRG 2411-113]	500	
CNC(CN)CCCN1Cc2ccccc2C(CNCCc2ccccc2)C1c1ccc(-c2ccccc2)cc1 (stereo not drawn) [TRG 2411-114]	760	
CNCCNC(CN)CCCN1Cc2ccccc2C(CNCCc2ccccc2)C1c1ccc(-c2ccccc2)cc1 (stereo not drawn) [TRG 2411-117]	970	
NCCNC(CN)CCCN1Cc2ccccc2C(CNCCc2ccccc2)C1c1ccc(-c2ccccc2)cc1 (stereo not drawn) [TRG 2411-118]	350	
CNC(C)CNC(CN)CCCN1Cc2ccccc2C(CNCCc2ccccc2)C1c1ccc(-c2ccccc2)cc1 (stereo not drawn) [TRG 2411-119]	370	
NCC(CCCN1Cc2ccccc2C(CNCCc2ccccc2)C1c1ccc(-c2ccccc2)cc1)NCCO (stereo not drawn) [TRG 2411-120]	1700	
CNC(CNC(CN)CCCN1Cc2ccccc2C(CNCCc2ccccc2)C1c1ccc(-c2ccccc2)cc1)Cc1ccccc1 (stereo not drawn) [TRG 2411-121]	1070	
COCCNC(CN)CCCN1Cc2ccccc2C(CNCCc2ccccc2)C1c1ccc(-c2ccccc2)cc1 (stereo not drawn) [TRG 2411-123]	1540	

From patent US6608082B1, “Treatment of erectile dysfunction using isoquinoline compound melanocortin receptor ligands” (Lion Bioscience AG, priority 1998, dated 2003)
